For 26 molecules, IC50, Catalepsy and inhibition in vivo results are on record in patent US5158947A, “Condensed heterocyclic compounds and psychopharmaceutical composition containing same” (Suntory Limited, priority 1990, dated 1992).

Data set [1] concerns the target T1, σ-receptor (Rattus norvegicus, UniProt Q9R0C9).
T1 construct: all of the cerebra, other than the cerebellum, of Wistar male rats; from tissue; host or cells: rat brain (cerebra without cerebellum), crude washed membranes
Briefly: Affinity to σ-receptor ([3H]3PPP binding, rat cerebra without cerebellum). On the set-up: species or system Wistar male rats. To be noted: 3 nM [3H]3PPP, 25° C., 90 minutes; non-specific: 1 μM haloperidol; read-out: Affinity to δ-Receptor IC50. As to the method:
The affinities of the present compounds to the […] were determined according to a method described in the "Molecular Pharmacology," Vol. 32, 772-784 (1987).
That is, 50 mM of a Tris-HCl (pH=7.7) buffer solution was added to all of the cerebra, other than the cerebellum, of Wistar male rats, followed by homogenizing for […] in a Polytson® and then centrifugally separating same at 35000 G for 10 minutes. To the resultant precipitate was added the same buffer solution as used above, and the homogenizing and the centrafugalization were repeated. This procedure was repeated once more, and to the final precipitate was added a 50 mM Tris -HCl (pH=8.0) buffer solution and the receptor having a binding capability. In the binding experiments, 3nM [^3 H] propyl-3-(3-hydroxyphenyl) piperidine (i.e., [^3 H]3PPP) was used, and as a non-specific ligand, 1 μM haloperidol was used. After incubation at 25° C. for 90 minutes, the bound ligand was recovered by filtration and the determination was carried out. The filter used was a Whatmen GF/B filter treated with 0.5% polyethylene imine.

Data set [2] has as its system catalepsy. The experiment in a line: Catalepsy. Particulars: scored after 30, 60, 90, and 120 minutes. In kind it is in vivo, ddy male mice. Here is the method: To ddy male mice having a body weight of about 25 g was intraperitoneally administered the present compound and the catalepsy was determined after 30, 60, 90, and 120 minutes therefrom. The score of the catalepsy was as follows.
The forelegs of the mouse were placed on an aupper edge of a 5.5 cm height box and the time until the more fulled its forelegs down from the box or the mouse jumped up onto the top of the box was measured and the score was determined based upon the following standard.

Data set [3] deals with locomotor hyperactivity induced by amfoneric acid. Briefly: Inhibitory activity against locomotor hyperactivity induced by amfoneric acid. In kind it is in vivo, ddy male mouse. Particulars: Mus musculus, ip, 100 min, amfoneric acid 2.5 mg/kg s.c., total count over 100 minutes, read-out: Inhibition Rate; for inhibition in vivo at 10 mg/kg: 10 mg/kg intraperitoneal, * 0.05 > P > 0.01, ** 0.01 > P > 0.001; for inhibition in vivo at 30 mg/kg: 30 mg/kg intraperitoneal. As to the method:
The inhibitory activity against locomotor hyperactivity induced by amfoneric acid of the present compounds were determined according to a method described in the "Journal of Pharmacology & Experimental Therapeuties," Vol. 239, 124-131 (1986) by R. T. Matthews et al.
That is, to a ddy male mouse having a body weight of about 25g, were simultaneously administered amfoneric acid (2.5 mg/kg, subcutaneous administration) and the present compound (intraperitoneal administration),and the amount of movement was determined using an apparatus for determining the amount of movement of a mouse. The amount of movement was determined over 100 minutes, and the test of significance thereof was effected for the total count number for 100 minutes by a Manwhitnee test. The value was indicated as the inhibition rate based, as a control, upon the group to which 2.5 mg/kg of amfoneric acid was subcutaneously administered.

T1 sequence (Q9R0C9 whole entry): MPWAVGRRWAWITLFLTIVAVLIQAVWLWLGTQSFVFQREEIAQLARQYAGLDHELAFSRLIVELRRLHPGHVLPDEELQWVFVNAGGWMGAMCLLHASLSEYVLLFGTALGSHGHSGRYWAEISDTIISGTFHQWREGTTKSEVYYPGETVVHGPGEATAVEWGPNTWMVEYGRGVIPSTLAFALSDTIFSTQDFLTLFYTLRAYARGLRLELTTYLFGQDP

What is called IC50 is the concentration that inhibits the measured activity by half. With `O=C1c2ccccc2OCCN1CCCCN1CCC(c2ccccc2)CC1` [Example 1, 4-(4-(4-phenyl)-1-piperidinyl)butyl-2,3,4,5-tetrahydro-1,4-benzoxazepin-5-one], the IC50 in data set [1] worked out at 14.2 nM.
With `O=C1COc2ccccc2C(=O)N1CCCCCN1CCC(c2ccc(Cl)cc2)CC1` [Example 31], the IC50 in data set [1] turned out to be 7.82 nM. Further, the Catalepsy result in data set [2] (30 mg/kg intraperitoneal) was “- (less than 1)”.
Regarding `O=C1CSc2ccccc2C(=O)N1CCCCN1CCC(c2ccccc2)CC1` [Example 17, 4-(4-(4-phenyl)-1-piperidinyl)butyl-2,3,4,5-tetrahydro-1,4-benzothiazepine-3,5-dione], the concentration for half-maximal inhibition (IC50) in data set [1] was 4 nM.
Same read-out and setting: next, `O=C1c2ccccc2OCCN1CCCCN1CCC(c2ccc(Cl)cc2)CC1` [Example 2, 4-(4-(4-(4-chlorophenyl)-1-piperidinyl)butyl)-2,3,4,5-tetrahydro-1,4-benzoxazepin-5-one]: 11.7 nM; `O=C1c2ccccc2OCCN1CCCCCN1CCC(c2ccc(Cl)cc2)CC1` [Example 27, 4-(5-(4-(4-chlorochenyl)1-piperidinyl)pentyl)-2,3,4,5-tetrahydro-1,4-benzoxazepin-5-one]: 10.6 nM.
As for `O=C1CNc2ccccc2C(=O)N1CCCCN1CCC(c2ccccc2)CC1` [Example 18, 4-(4-(4-phenyl)-1-piperidinyl)butyl-2,3,4,5-tetrahydro-1,4-benzodiazepine-3,5-dione], in data set [1], the concentration for half-maximal inhibition (IC50) was 14.1 nM. Also, in data set [3] (1 mg/kg intraperitoneal, * 0.05 > P > 0.01), the inhibition in vivo at 1 mg/kg was determined as 65%. Further, the inhibition in vivo at 10 mg/kg in data set [3] is 90%. For the same molecule, in data set [2] (10 mg/kg intraperitoneal), the Catalepsy result is listed as “- (less than 1)”.
Consider `O=C1COc2ccccc2CN1CCCCCN1CCC(c2ccccc2)CC1` [Example 28, 4-(5-(4-phenyl)-1-piperidinyl)pentyl-2,3,4,5-tetrahydro-1,4-benzoxazepin-3-one], for which the IC50 in data set [1] is 8.02 nM.
Turning to `CN1CC(=O)N(CCCCN2CCC(c3ccccc3)CC2)C(=O)c2ccccc21` [Example 21, 1-methyl-4-(4-(4-phenyl) -1-piperidinyl)butyl-2,3,4,5-tetrahydro-1,4-benzodiazepine-3,5-dione], in data set [1], the IC50 was found to be 13.7 nM. For the same molecule, the Catalepsy entry in data set [2] (30 mg/kg intraperitoneal) was “- (less than 1)”.
Turning to `O=C1CSc2ccccc2C(=O)N1CCCCCN1CCC(c2ccccc2)CC1` [Example 32, 4-(5-(4-phenyl)-1-piperidinyl)pentyl-2,3,4,5-tetrahydro-1,4-benzothiazepine-3,5-dione], the IC50 in data set [1] came out at 3.95 nM.
Same read-out and setting: for `O=C1CSc2ccccc2C(=O)N1CCCCCN1CCC(c2ccc(Cl)cc2)CC1` [Example 33] the value was 17.6 nM.
Same read-out and setting: for `O=C1COc2ccccc2C(=O)N1CCCCN1CCC(c2ccc(Cl)cc2)CC1` [Example 9, 4-(4-(4-(4-chlorophenyl)-1-piperidinyl)butyl)-2,3,4,5-tetrahydro-1,4-benzoxazepine-3,5-dione] the value was 4.73 nM.
As for `O=C1COc2ccccc2CN1CCCCCN1CCC(c2ccc(Cl)cc2)CC1` [Example 29], the IC50 in data set [1] is 10.3 nM. Also, in data set [3], the inhibition in vivo at 10 mg/kg was 60%. Moreover, the Catalepsy entry in data set [2] (30 mg/kg intraperitoneal) is given as “- (less than 1)”.
On the same counts, the results for `O=C1c2ccccc2OCCN1CCCCCN1CCC(c2ccccc2)CC1` [Example 26, 4-(5-(4-phenyl)-1-piperidinyl)pentyl-2,3,4,5-tetrahydro-1,4-benzoxazepin-5-one] are 10.9 nM, 65% and “- (less than 1)”.
With `O=C1CCc2ccccc2C(=O)N1CCCCCN1CCC(c2ccccc2)CC1` [Example 36, 2-(5-(4-phenyl)-1-piperidinyl)pentyl-1,3,4,5-tetrahydro-2-benzazepine-1,3-dione], in data set [1], the IC50 came to 3.62 nM.
Turning to `O=C1COc2ccccc2C(=O)N1CCCCN1CCC(c2ccccc2)CC1` [Example 8, 4-(4-(4-phenyl)-1-piperidinyl)butyl-2,3,4,5-tetrahydro-1,4-benzoxazepine-3,5-dione], the IC50 in data set [1] came to 6.61 nM. Further, the inhibition in vivo at 30 mg/kg in data set [3] (* 0.05 > P > 0.01) came to 73%. The Catalepsy result in data set [2] (30 mg/kg intraperitoneal) is given as “- (less than 1)”.
As for `O=C1CCc2ccccc2C(=O)N1CCCCN1CCC(c2ccccc2)CC1` [Example 22, 2-(4-(4-phenyl)-1-piperidinyl)butyl-1,3,4,5-tetrahydro-2-benzazepine-1,3-dione], the IC50 in data set [1] came to 3.74 nM. Moreover, the inhibition in vivo at 10 mg/kg in data set [3] was determined as 52%.
On to `O=C1CNc2ccccc2C(=O)N1CCCCN1CCC(c2ccc(Cl)cc2)CC1` [Example 19], for which the IC50 in data set [1] turned out to be 16.1 nM. In addition, the inhibition in vivo at 10 mg/kg in data set [3] worked out at 53%. In data set [2] (20 mg/kg intraperitoneal), the Catalepsy result was “- (less than 1)”.
With `O=C1COc2ccccc2C(=O)N1CCCCN1CCC(c2ccccn2)CC1` [Example 14, 4-(4-(4-(2-pyridyl)-1-piperidinyl)butyl)-2,3,4,5-tetrahydro-1,4-benzoxazepine-3,5-dione], the IC50 in data set [1] was 17.8 nM.
On the same count and under the same terms, next, `O=C1COc2ccccc2CN1CCCCN1CCC(c2ccc(Cl)cc2)CC1` [Example 5]: 18.7 nM; `O=C1CCc2ccccc2C(=O)N1CCCCN1CCC(c2ccc(Cl)cc2)CC1` [Example 23, 2-(4-(4-(4-chlorophenyl)-1-piperidinyl)butyl)-1,3,4,5-tetrahydro-2-benzazepine-1,3-dione]: 6.4 nM.
Turning to `O=C1CCc2ccccc2C(=O)N1CCCCCN1CCC(c2ccc(Cl)cc2)CC1` [Example 37, 2-(5-(4-(4-chlorophenyl)-1-piperidinyl)pentyl)-1,3,4,5-tetrahydro-2-benzazepine-1,3-dione], the IC50 in data set [1] was 8.91 nM. In addition, the inhibition in vivo at 10 mg/kg in data set [3] was found to be 74%. Besides, the Catalepsy entry in data set [2] (30 mg/kg intraperitoneal) is recorded as “- (less than 1)”.
As to `O=C1COc2ccccc2C(=O)N1CCCCCN1CCC(c2ccccc2)CC1` [Example 30, 4-(5-(4-phenyl)-1-piperidinyl)pentyl-2,3,4,5-tetrahydro-1,4-benzoxazepine-3,5-dione], the 50% inhibitory concentration (IC50) in data set [1] was found to be 4.73 nM. The inhibition in vivo at 30 mg/kg in data set [3] (* 0.05 > P > 0.01) came out at 70%. The Catalepsy result in data set [2] (30 mg/kg intraperitoneal) is “- (less than 1)”.
In the case of `OC(CCCN1CCN(c2ncc(F)cn2)CC1)c1ccc(F)cc1` (centres unmarked) [BMY14802, reference compound], in data set [3] (* 0.05 > P > 0.01), the inhibition in vivo at 30 mg/kg worked out at 51%.
`O=C(CCCN1CCC(O)(c2ccc(Cl)cc2)CC1)c1ccc(F)cc1` [Haloperidol, reference compound]: the Catalepsy entry in data set [2] (0.1 mg/kg intraperitoneal, control) is “++ (more than 2 but less than 3)”.
For `O=C1COc2ccccc2C(=O)N1CCCCN1CC=C(c2ccccc2)CC1` [Example 12, 4-(4-(4-phenyl-1,2,3,6-tetrahydro)-1-pyridyl)butyl-2,3,4,5-tetrahydro-1,4-benzoxazepine-3,5-dione], the IC50 in data set [1] amounted to 12.1 nM.
Same read-out and setting: next, `O=C1COc2ccccc2CN1CCCCN1CCC(c2ccccc2)CC1` [Example 4]: 9.22 nM.
